In US6943025B2, “Method for identifying genes involved in cell proliferation” (Children's Medical Center Corporation, priority 2001, dated 2005):

Tests used:
zebrafish embryos = settings: literature reports; cited from earlier work
Wild-type fish = settings: zebrafish, in vivo
[1] = system: zebrafish mutant strains and wild-type; assay: Carcinogenesis assay in mutant strains (carcinogen induced tumorigenesis, Table II); settings: 21 day-old fry
[2] = SQW 61, 5.0 ppm DMBA 24 hours, three months post-treatment
[3] = SQW 213, 5.0 ppm DMBA 24 hours, three months post-treatment
[4] = SQW 226, 5.0 ppm DMBA 24 hours, three months post-treatment
[5] = SQW 280, 5.0 ppm DMBA 24 hours, three months post-treatment
[6] = WT, 5.0 ppm DMBA 24 hours, 6 months post-treatment

Question: With `NC(=O)NO` [hydoxyurea] as the compound, how does the “effect on zebrafish embryos (checkpoint, apoptosis)” value (“effect on zebrafish embryos” below) (zebrafish embryos) read?
Answer: cause apoptosis

Question: For `Cc1c2ccccc2c(C)c2c1ccc1ccccc12` [DMBA, 7,12 dimethylbenzanthracene], which “fish that developed tumors” value (Wild-type fish; wild-type) is on record?
Answer: 10.4%

Question: And the “fish that developed tumors / fish treated” value (Wild-type fish; wild-type)?
Answer: 9/86

Question: What about the “tumor seen in tissue sections (histology)” value (Wild-type fish) of the same compound?
Answer: medulloblastoma

Question: And the tumor types produced (Wild-type fish)?
Answer: more brain and liver tumors

Question: And the “# tumors” value [1, 2]?
Answer: 24

Question: What about the “% tumors” value [1, 2] of the same compound?
Answer: 18%

Question: And the “# tumors” value [1, 3]?
Answer: 2

Question: What about the “% tumors” value [1, 3] of the same compound?
Answer: 7%

Question: And the “# tumors” value [1, 4]?
Answer: 4

Question: What about the “% tumors” value [1, 4] of the same compound?
Answer: 20%

Question: What about the “# tumors” value [1, 5] of the same compound?
Answer: 6

Question: And the “% tumors” value [1, 5]?
Answer: 12%

Question: What about the “# tumors” value [1, 6] of the same compound?
Answer: 2

Question: And the “% tumors” value [1, 6]?
Answer: 5%

Question: For `C[C@@]1(CO)[C@H](O)CC[C@@]2(C)[C@H]1CC[C@H]1C[C@@H]3C[C@@]12CC[C@]3(O)CO` [aphidicolin], which “effect on zebrafish embryos” value (zebrafish embryos) is on record?
Answer: cause apoptosis

Question: Which “effect on zebrafish embryos” value (zebrafish embryos) does the source give for `COC(=O)Nc1nc2cc(C(=O)c3cccs3)ccc2[nH]1` [nocodozolc] here?
Answer: destabilized microtubules and the activation of a mitotic checkpoint

Question: With `CC[C@@]1(O)C(=O)OCc2c1cc1n(c2=O)Cc2cc3ccccc3nc2-1` [Camptothecin] as the compound, how does the “effect on zebrafish embryos” value (zebrafish embryos) read?
Answer: produces DNA strand breaks, resulting in subsequent apoptosis
